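1) Cells in 96-well plates. 2) Compound, 48 h, 5 concentrations. 3) Linear interpolation between surrounding doses. 4) Unreached endpoint = highest concentration. At the GI50, growth is halved. At the TGI there is no net growth.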
Key:
Test in all cases: NCI-60 cell line screen, 48 h
NCI/ADR-RES ovarian = test system: NCI/ADR-RES ovarian
RXF 393 renal = test system: RXF 393 renal
UO-31 renal = test system: UO-31 renal
SN12C renal = test system: SN12C renal
K-562 leukemia = test system: K-562 leukemia
NCI-H460 lung = test system: NCI-H460 lung
HOP-92 NSCLC = test system: HOP-92 NSCLC
HS 578T breast = test system: HS 578T breast
DU-145 prostate = test system: DU-145 prostate
SNB-75 CNS = test system: SNB-75 CNS
RPMI-8226 leukemia = test system: RPMI-8226 leukemia
MOLT-4 leukemia = test system: MOLT-4 leukemia
CCRF-CEM leukemia = test system: CCRF-CEM leukemia
SR leukemia = test system: SR leukemia
UACC-62 melanoma = test system: UACC-62 melanoma
TK-10 renal = test system: TK-10 renal
SK-MEL-5 melanoma = test system: SK-MEL-5 melanoma
T-47D breast = test system: T-47D breast
MDA-MB-435 = test system: MDA-MB-435
SF-268 CNS = test system: SF-268 CNS
MCF7 breast = test system: MCF7 breast
SK-MEL-28 melanoma = test system: SK-MEL-28 melanoma
786-0 renal = test system: 786-0 renal
HOP-62 NSCLC = test system: HOP-62 NSCLC
A549 NSCLC = test system: A549 NSCLC
ACHN renal = test system: ACHN renal
OVCAR-4 ovarian = test system: OVCAR-4 ovarian
NCI-H23 lung = test system: NCI-H23 lung
SW-620 colon = test system: SW-620 colon
CAKI-1 renal = test system: CAKI-1 renal
M14 melanoma = test system: M14 melanoma
COLO 205 colon = test system: COLO 205 colon
MALME-3M melanoma = test system: MALME-3M melanoma
HL-60(TB) leukemia = test system: HL-60(TB) leukemia
SK-OV-3 ovarian = test system: SK-OV-3 ovarian
U251 CNS = test system: U251 CNS
SK-MEL-2 melanoma = test system: SK-MEL-2 melanoma
OVCAR-5 ovarian = test system: OVCAR-5 ovarian
IGROV1 ovarian = test system: IGROV1 ovarian
KM12 colon = test system: KM12 colon
A498 renal = test system: A498 renal
PC-3 prostate = test system: PC-3 prostate
LOX IMVI melanoma = test system: LOX IMVI melanoma
OVCAR-3 ovarian = test system: OVCAR-3 ovarian
HT29 colon = test system: HT29 colon
HCT-15 colon = test system: HCT-15 colon
BT-549 breast = test system: BT-549 breast
SF-539 CNS = test system: SF-539 CNS
HCT-116 colon = test system: HCT-116 colon
NCI-H522 lung = test system: NCI-H522 lung
SNB-19 CNS = test system: SNB-19 CNS
NCI-H226 lung = test system: NCI-H226 lung
MDA-MB-231 breast = test system: MDA-MB-231 breast
HCC-2998 colon = test system: HCC-2998 colon
OVCAR-8 ovarian = test system: OVCAR-8 ovarian
EKVX NSCLC = test system: EKVX NSCLC
UACC-257 melanoma = test system: UACC-257 melanoma

SMILES: N#Cc1cccc(CSc2ncnc3nc[nH]c23)c1
- GI50 (NCI/ADR-RES ovarian): 27.6 µM
- TGI (NCI/ADR-RES ovarian): 80.8 µM
- GI50 (RXF 393 renal): 32.8 µM
- GI50 (UO-31 renal): 71.9 µM
- GI50 (SN12C renal): 91 µM
- GI50 (K-562 leukemia): 38.2 µM
- GI50 (NCI-H460 lung): 74 µM
- GI50 (HOP-92 NSCLC): 16.5 µM
- TGI (HOP-92 NSCLC): 97.5 µM
- GI50 (HS 578T breast): 64.2 µM
- GI50 (DU-145 prostate): 73.6 µM
- GI50 (SNB-75 CNS): 23.7 µM
- TGI (SNB-75 CNS): 87.7 µM
- GI50 (RPMI-8226 leukemia): 40.4 µM
- GI50 (MOLT-4 leukemia): 85.2 µM
- GI50 (CCRF-CEM leukemia): 61.8 µM
- GI50 (SR leukemia): 38.9 µM
- GI50 (UACC-62 melanoma): 75.7 µM
- GI50 (TK-10 renal): 99.2 µM
- GI50 (SK-MEL-5 melanoma): 89.5 µM
- GI50 (T-47D breast): 56 µM
- GI50 (MDA-MB-435): 89.8 µM

SMILES: C=CCNc1nc(C#N)c(N)s1
- TGI (NCI/ADR-RES ovarian): > 10 µM
- TGI (RXF 393 renal): > 10 µM
- TGI (SF-268 CNS): > 10 µM
- TGI (K-562 leukemia): > 10 µM
- TGI (NCI-H460 lung): > 10 µM
- TGI (HOP-92 NSCLC): > 10 µM
- TGI (SNB-75 CNS): > 10 µM
- TGI (MCF7 breast): > 10 µM
- TGI (RPMI-8226 leukemia): > 10 µM
- TGI (SK-MEL-28 melanoma): > 10 µM
- TGI (MOLT-4 leukemia): > 10 µM
- TGI (786-0 renal): > 10 µM
- TGI (CCRF-CEM leukemia): > 10 µM
- TGI (HOP-62 NSCLC): > 10 µM
- TGI (A549 NSCLC): > 10 µM
- TGI (ACHN renal): > 10 µM
- TGI (OVCAR-4 ovarian): > 10 µM
- TGI (SR leukemia): > 10 µM
- TGI (NCI-H23 lung): > 10 µM
- TGI (SW-620 colon): > 10 µM
- TGI (CAKI-1 renal): > 10 µM
- TGI (UACC-62 melanoma): > 10 µM
- TGI (M14 melanoma): > 10 µM
- TGI (COLO 205 colon): > 10 µM
- TGI (MALME-3M melanoma): > 10 µM
- TGI (HL-60(TB) leukemia): > 10 µM
- TGI (SK-OV-3 ovarian): > 10 µM
- TGI (U251 CNS): > 10 µM
- TGI (SK-MEL-2 melanoma): > 10 µM
- TGI (SK-MEL-5 melanoma): > 10 µM
- TGI (T-47D breast): > 10 µM
- TGI (MDA-MB-435): > 10 µM
- TGI (OVCAR-5 ovarian): > 10 µM
- TGI (IGROV1 ovarian): > 10 µM

SMILES: COc1cc(/C=C/c2cc(O)c3cc(C(C)=O)c(=O)oc3c2)cc2c1O[C@]1(C)CC[C@@H](O)C(C)(C)[C@H]1C2
- GI50 (NCI/ADR-RES ovarian): > 36.4 µM
- TGI (NCI/ADR-RES ovarian): > 88.9 µM
- GI50 (KM12 colon): > 20.8 µM
- TGI (KM12 colon): > 39.3 µM
- TGI (UO-31 renal): > 26.2 µM
- GI50 (SN12C renal): > 33 µM
- TGI (SN12C renal): > 68 µM
- TGI (A498 renal): > 28.2 µM
- GI50 (SF-268 CNS): > 21.4 µM
- TGI (SF-268 CNS): > 56.4 µM
- TGI (PC-3 prostate): > 36 µM
- TGI (K-562 leukemia): > 100 µM
- TGI (NCI-H460 lung): > 53.2 µM
- TGI (HOP-92 NSCLC): > 28.5 µM
- TGI (LOX IMVI melanoma): > 42.2 µM
- GI50 (DU-145 prostate): > 27.8 µM
- TGI (DU-145 prostate): > 45.6 µM
- TGI (SNB-75 CNS): > 48 µM
- TGI (MCF7 breast): > 39.3 µM
- GI50 (OVCAR-3 ovarian): > 33.1 µM
- TGI (OVCAR-3 ovarian): > 89.1 µM
- GI50 (HT29 colon): > 24.9 µM
- TGI (HT29 colon): > 62.2 µM
- TGI (SK-MEL-28 melanoma): > 21.4 µM
- TGI (HCT-15 colon): > 31.8 µM
- TGI (MOLT-4 leukemia): > 26.4 µM
- TGI (786-0 renal): > 25.3 µM
- TGI (CCRF-CEM leukemia): > 29.4 µM
- GI50 (HOP-62 NSCLC): > 26.8 µM
- TGI (HOP-62 NSCLC): > 79.9 µM
- GI50 (A549 NSCLC): > 24.2 µM
- TGI (A549 NSCLC): > 53.2 µM
- GI50 (ACHN renal): > 22.9 µM
- TGI (ACHN renal): > 74 µM
- GI50 (OVCAR-4 ovarian): > 43 µM
- TGI (OVCAR-4 ovarian): > 74.3 µM
- TGI (BT-549 breast): > 61.2 µM
- TGI (SR leukemia): > 100 µM
- TGI (SF-539 CNS): > 23.6 µM
- GI50 (HCT-116 colon): > 19.7 µM
- TGI (HCT-116 colon): > 52.3 µM
- GI50 (NCI-H23 lung): > 22.2 µM
- TGI (NCI-H23 lung): > 55 µM
- TGI (SW-620 colon): > 34.7 µM
- TGI (CAKI-1 renal): > 39.4 µM
- GI50 (NCI-H522 lung): > 25.9 µM
- TGI (NCI-H522 lung): > 53 µM
- GI50 (SNB-19 CNS): > 21.9 µM
- TGI (SNB-19 CNS): > 95.4 µM
- GI50 (NCI-H226 lung): > 23.7 µM
- TGI (NCI-H226 lung): > 64.9 µM
- TGI (UACC-62 melanoma): > 27.8 µM
- TGI (M14 melanoma): > 20.2 µM
- GI50 (MDA-MB-231 breast): > 26.7 µM
- TGI (MDA-MB-231 breast): > 92.3 µM
- GI50 (COLO 205 colon): > 27.5 µM
- TGI (COLO 205 colon): > 59.8 µM
- TGI (MALME-3M melanoma): > 33 µM
- GI50 (HCC-2998 colon): > 28.2 µM
- TGI (HCC-2998 colon): > 48.7 µM
- GI50 (OVCAR-8 ovarian): > 28.2 µM
- TGI (OVCAR-8 ovarian): > 95.1 µM
- GI50 (HL-60(TB) leukemia): 2.12 µM
- TGI (HL-60(TB) leukemia): 10.7 µM
- GI50 (TK-10 renal): > 42.7 µM
- TGI (TK-10 renal): > 77.7 µM
- GI50 (SK-OV-3 ovarian): > 20.6 µM
- TGI (SK-OV-3 ovarian): > 64 µM
- TGI (U251 CNS): > 81.4 µM
- TGI (SK-MEL-2 melanoma): > 45.8 µM
- GI50 (EKVX NSCLC): > 32.5 µM
- TGI (EKVX NSCLC): > 64.1 µM
- GI50 (T-47D breast): > 23.8 µM
- TGI (T-47D breast): > 53.9 µM
- TGI (UACC-257 melanoma): > 30.5 µM
- GI50 (MDA-MB-435): > 20.1 µM
- TGI (MDA-MB-435): > 45.7 µM
- GI50 (OVCAR-5 ovarian): > 36.5 µM
- TGI (OVCAR-5 ovarian): > 86 µM
- GI50 (IGROV1 ovarian): > 25.9 µM
- TGI (IGROV1 ovarian): > 66.1 µM
